Assays:
[1] = molecular target: Glutamate receptor 4 (Homo sapiens) (UniProt P48058); test: Effective dose required for the action of AMPA receptor antagonistic activity in maximal electroshock anticonvulsant assay; format: functional
[2] = molecular target: Glutamate receptor ionotropic, NMDA 2C (Rattus norvegicus) (UniProt Q00961); test: Effective dose required for the action of NMDA receptor activity in maximal electroshock anticonvulsant assay; format: functional
Chain of Glutamate receptor ionotropic, NMDA 2C (Rattus norvegicus) (Q00961 20-1237 limits assumed): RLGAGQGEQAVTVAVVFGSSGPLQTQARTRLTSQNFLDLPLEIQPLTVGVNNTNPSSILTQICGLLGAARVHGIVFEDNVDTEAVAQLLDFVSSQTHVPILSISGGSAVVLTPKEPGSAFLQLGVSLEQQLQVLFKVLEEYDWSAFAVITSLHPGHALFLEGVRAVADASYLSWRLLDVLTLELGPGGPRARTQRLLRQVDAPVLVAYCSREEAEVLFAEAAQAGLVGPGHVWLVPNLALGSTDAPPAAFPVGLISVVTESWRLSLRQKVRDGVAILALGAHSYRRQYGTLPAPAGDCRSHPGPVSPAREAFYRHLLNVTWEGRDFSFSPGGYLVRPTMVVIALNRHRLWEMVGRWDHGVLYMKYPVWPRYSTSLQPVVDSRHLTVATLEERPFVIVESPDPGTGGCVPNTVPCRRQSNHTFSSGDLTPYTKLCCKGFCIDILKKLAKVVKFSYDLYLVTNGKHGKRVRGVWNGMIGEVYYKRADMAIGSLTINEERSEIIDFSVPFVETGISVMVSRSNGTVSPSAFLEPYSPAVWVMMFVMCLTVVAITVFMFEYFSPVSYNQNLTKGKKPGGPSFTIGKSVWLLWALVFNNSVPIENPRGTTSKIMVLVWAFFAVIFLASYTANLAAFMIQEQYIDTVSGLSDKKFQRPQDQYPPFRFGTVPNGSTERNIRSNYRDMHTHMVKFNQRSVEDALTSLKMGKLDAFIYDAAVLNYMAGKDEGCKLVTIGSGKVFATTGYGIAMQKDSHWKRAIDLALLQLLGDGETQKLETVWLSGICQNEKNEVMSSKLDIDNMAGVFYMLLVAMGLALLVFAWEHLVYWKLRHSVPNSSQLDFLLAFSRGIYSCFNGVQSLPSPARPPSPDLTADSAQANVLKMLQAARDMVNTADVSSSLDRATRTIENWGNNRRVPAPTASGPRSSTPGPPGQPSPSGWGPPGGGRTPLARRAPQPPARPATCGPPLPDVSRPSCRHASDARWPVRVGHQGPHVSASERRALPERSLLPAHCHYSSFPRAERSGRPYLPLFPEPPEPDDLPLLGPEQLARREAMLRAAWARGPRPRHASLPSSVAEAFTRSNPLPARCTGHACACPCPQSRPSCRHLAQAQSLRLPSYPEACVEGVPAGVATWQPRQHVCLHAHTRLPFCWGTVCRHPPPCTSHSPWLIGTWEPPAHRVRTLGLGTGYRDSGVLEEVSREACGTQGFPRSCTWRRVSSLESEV

Chain of Glutamate receptor 4 (Homo sapiens) (P48058 whole entry): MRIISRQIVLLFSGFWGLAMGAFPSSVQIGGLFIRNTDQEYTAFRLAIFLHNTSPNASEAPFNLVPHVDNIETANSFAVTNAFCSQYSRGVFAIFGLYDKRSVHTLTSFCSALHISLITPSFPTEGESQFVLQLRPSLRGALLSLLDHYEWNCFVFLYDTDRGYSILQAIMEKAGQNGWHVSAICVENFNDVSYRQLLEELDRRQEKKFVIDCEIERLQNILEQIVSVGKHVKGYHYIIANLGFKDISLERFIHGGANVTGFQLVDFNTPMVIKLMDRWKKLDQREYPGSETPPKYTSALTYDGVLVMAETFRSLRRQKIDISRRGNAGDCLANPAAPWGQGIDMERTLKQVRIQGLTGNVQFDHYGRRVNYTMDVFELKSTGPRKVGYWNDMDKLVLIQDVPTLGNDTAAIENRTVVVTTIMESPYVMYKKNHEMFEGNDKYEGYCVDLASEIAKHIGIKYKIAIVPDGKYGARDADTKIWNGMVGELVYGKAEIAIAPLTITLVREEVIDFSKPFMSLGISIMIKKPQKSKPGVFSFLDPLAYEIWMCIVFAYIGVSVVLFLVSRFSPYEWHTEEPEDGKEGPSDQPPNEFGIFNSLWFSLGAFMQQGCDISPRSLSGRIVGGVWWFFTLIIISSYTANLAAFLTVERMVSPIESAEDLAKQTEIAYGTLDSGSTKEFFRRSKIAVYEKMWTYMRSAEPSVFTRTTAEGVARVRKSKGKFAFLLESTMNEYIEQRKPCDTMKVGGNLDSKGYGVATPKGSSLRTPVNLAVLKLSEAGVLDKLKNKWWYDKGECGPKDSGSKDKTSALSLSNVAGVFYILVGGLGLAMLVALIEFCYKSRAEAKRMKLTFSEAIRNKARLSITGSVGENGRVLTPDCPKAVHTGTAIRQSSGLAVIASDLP

SMILES	ED50 [1]	ED50 [2]
CN1CCc2c([N+](=O)[O-])cc3nc(O)c(O)nc3c2C1	0.44 mg/kg	–
NS(=O)(=O)c1cccc2c1c([N+](=O)[O-])cc1nc(O)c(O)nc12	–	13.1 mg/kg

Source: ChEMBL document CHEMBL1130496, “Synthesis of N-desmethyl PNQX: elaboration into an immunogenic conjugate and a radioiodinated ligand; radioimmunoassay for the AMPA/NMDA antagonist, PNQX” (Bioorg Med Chem Lett, 1997)
